These are literature values, as cited in US20150252306A1, “COMPOSITIONS COMPRISING A PUNGENT AGENT” (The Procter & Gamble Company, priority 2014, published 2015).

The conditions of the series: Scoville heat units, given for comparison.

Each structure is given as a SMILES string.

Turning to `COc1cc(CNC(=O)CCCC/C=C/C(C)C)ccc1O` [capsaicin], the pungency level entry is on record as “about 16 000 000 SHU”.
